Measured values published in patent US10232009B1, “Peptide for promoting wound healing, its composition and method of using the same” (PRO SUNFUN BIOTECH RESEARCH AND DEVELOPMENT CO., LTD., priority 2017, dated 2019).
Entries after “also recorded” stand apart in the source; their conditions may differ. Ends that are not written are not given here.

Columns and labels:
Type in all cases: cell-based, Human
CCD-966SK cells = assay: Transwell migration assay, CCD-966SK fibroblast cells; details: 50 μg/ml peptide, 24-hour culture, P<0.01
Description: (§1) Human keratinocyte HaCaT and skin fibroblast CCD-966SK cells were cultured in Dulbecco's Modified Eagle Medium (DMEM) containing 10% (v/v) FBS and 1% (v/v) antibiotics in 5% CO2 at 37° C.
(§2) HaCaT cells (5×10^4) or CCD-966SK cells (5×10^3) in 0.25 ml serum-free DMEM were seeded into the upper chamber with an 8-μm pore size membrane (Corning, USA) and 0.5 ml serum free DMEM with or without 50 μg/ml Peptide NO. 9 were loaded to the lower chamber in 24-well culture plate. After 24 hours incubation, cells were fixed and stained with 0.5% (w/v) crystal violet (Sigma) containing 20% (v/v) methanol. The number of migrated cells from 5 random fields was counted under the microscope. Results obtained were analyzed by student's t-test and graphed as mean±SD.

CCD966SK cells = assay: MTT assay, viability of CCD966SK cells; details: 50 μg/ml peptide
Description: as §1
(§3) HaCaT keratinocyte cells (3×10^3, each cell line) in 100 μl complete DMEM were seeded in 96-well plates with or without 50 μg/ml Peptide NO. 9, respectively. Ten microliters of 5 mg/ml 3-(4,5-dimethyl-2-thiazolyl)-2,5-diphenyl-2H-tetrazolium bromide solution (MTT; Sigma) was added to each well for the indicated times and incubated at 37° C. for 3 hours, after which 100 μl 10% SDS in 0.01 N HCl was added to dissolve the MTT formazan crystals. The resultant optical density was measured spectrophotometrically at dual wavelengths, 550 and 630 nm.

HaCaT keratinocyte cells = assay: MTT assay, viability of HaCaT keratinocyte cells; details: 50 μg/ml peptide
Description: as §1, §3

HaCaT cells = assay: Transwell migration assay, HaCaT keratinocyte cells; details: 50 μg/ml peptide, 24-hour culture, P<0.05
Description: as §1, §2

## HTSTEAK [Peptide NO. 9]
CCD-966SK cells
  CCD966SK fibroblast cell migration: enhanced CCD966SK fibroblast cell migration; also recorded: significant efficacy in enhancing HaCaT CCD966SK fibroblast cell migration
CCD966SK cells; 24 hours
  viability of CCD966SK cells: did not significantly affect viability of CCD966SK cells
CCD966SK cells; 48 hours
  viability of CCD966SK cells: did not significantly affect viability of CCD966SK cells
CCD966SK cells; 72 hours
  viability of CCD966SK cells: did not significantly affect viability of CCD966SK cells
HaCaT keratinocyte cells; 24-hour culture
  viability of HaCaT keratinocyte cells: did not significantly affect viability of HaCaT cells
HaCaT keratinocyte cells; 48-hour culture
  viability of HaCaT keratinocyte cells: did not significantly affect viability of HaCaT cells
HaCaT keratinocyte cells; 72-hour culture
  viability of HaCaT keratinocyte cells: did not significantly affect viability of HaCaT cells
HaCaT cells
  HaCaT keratinocyte cell migration: enhanced HaCaT keratinocyte cell migration; also recorded: significant efficacy in enhancing HaCaT keratinocyte cell migration; also recorded: effect in enhancement of keratinocyte cell migration of HaCaT cells
